Measured values from the supplement of paper PMC10307832.

Key:
Experiment in all cases: relative viability (nuclei count vs DMSO), 5 days (fraction); higher = more cells survive
NCI-H322M = test system: NCI-H322M
In short: (§1)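 Medians of duplicate plates are given as relative viability. That measure is the nuclei count in treated wells divided by the count in vehicle wells. Counts were taken on 4× images of lung cancer cell lines in 1536-well plates, 5 days after pin-tool dosing the day after seeding with one drug alone or a fixed anchor-drug dose plus five library-drug doses (not always all listed) in √10 steps.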

HCC-44 = test system: HCC-44
In short: as §1

NCI-H1792 = test system: NCI-H1792
In short: as §1

NCI-H2347 = test system: NCI-H2347
In short: as §1

RERF-LC-KJ = test system: RERF-LC-KJ
In short: as §1

NCI-H1944 = test system: NCI-H1944
In short: as §1

SK-LU-1 = test system: SK-LU-1
In short: as §1

NCI-H1755 = test system: NCI-H1755
In short: as §1

NCI-H1793 = test system: NCI-H1793
In short: as §1

ChaGo-K-1 = test system: ChaGo-K-1
In short: as §1

NCI-H1666 = test system: NCI-H1666
In short: as §1

NCI-H1395 = test system: NCI-H1395
In short: as §1

NCI-H520 = test system: NCI-H520
In short: as §1

CAL-12T = test system: CAL-12T
In short: as §1

HCC-827 = test system: HCC-827
In short: as §1

NCI-H3122 = test system: NCI-H3122
In short: as §1

LU99A = test system: LU99A
In short: as §1

NCI-H2126 = test system: NCI-H2126
In short: as §1

LXF-289 = test system: LXF-289
In short: as §1

CCNC(=O)c1noc(-c2cc(C(C)C)c(O)cc2O)c1-c1ccc(CN2CCOCC2)cc1 [Luminespib] + CC1(C)CCC(c2ccc(Cl)cc2)=C(CN2CCN(c3ccc(C(=O)NS(=O)(=O)c4ccc(N[C@H](CCN5CCOCC5)CSc5ccccc5)c(S(=O)(=O)C(F)(F)F)c4)cc3)CC2)C1 [Navitoclax] (partner 0.5 µM)
relative viability (NCI-H322M; first compound 0.002 µM): 1.14
relative viability (NCI-H322M; first compound 0.006325 µM): 1.09
relative viability (NCI-H322M; first compound 0.02 µM): 1.02
relative viability (NCI-H322M; first compound 0.06325 µM): 1.16
relative viability (NCI-H322M; first compound 0.2 µM): 1.28
relative viability (HCC-44; first compound 0.002 µM): 0.943
relative viability (HCC-44; first compound 0.006325 µM): 0.99
relative viability (HCC-44; first compound 0.02 µM): 1.18
relative viability (HCC-44; first compound 0.06325 µM): 0.957
relative viability (HCC-44; first compound 0.2 µM): 0.129
relative viability (NCI-H1792; first compound 0.002 µM): 0.535
relative viability (NCI-H1792; first compound 0.006325 µM): 0.497
relative viability (NCI-H1792; first compound 0.02 µM): 0.539
relative viability (NCI-H1792; first compound 0.06325 µM): 0.32
relative viability (NCI-H1792; first compound 0.2 µM): 0.216
relative viability (NCI-H2347; first compound 0.002 µM): 0.794
relative viability (NCI-H2347; first compound 0.02 µM): 0.483
relative viability (NCI-H2347; first compound 0.06325 µM): 0.764
relative viability (NCI-H2347; first compound 0.2 µM): 0.275
relative viability (RERF-LC-KJ; first compound 0.002 µM): 0.987
relative viability (RERF-LC-KJ; first compound 0.006325 µM): 1.11
relative viability (RERF-LC-KJ; first compound 0.02 µM): 1.07
relative viability (RERF-LC-KJ; first compound 0.06325 µM): 0.221
relative viability (RERF-LC-KJ; first compound 0.2 µM): 0.22
relative viability (NCI-H1944; first compound 0.002 µM): 1.06
relative viability (NCI-H1944; first compound 0.006325 µM): 0.99
relative viability (NCI-H1944; first compound 0.02 µM): 0.708
relative viability (NCI-H1944; first compound 0.06325 µM): 0.939
relative viability (NCI-H1944; first compound 0.2 µM): 0.973
relative viability (SK-LU-1; first compound 0.002 µM): 0.887
relative viability (SK-LU-1; first compound 0.006325 µM): 0.478
relative viability (SK-LU-1; first compound 0.02 µM): 0.505
relative viability (SK-LU-1; first compound 0.06325 µM): 0.117
relative viability (SK-LU-1; first compound 0.2 µM): 0.0911
relative viability (NCI-H1755; first compound 0.002 µM): 0.981
relative viability (NCI-H1755; first compound 0.006325 µM): 0.959
relative viability (NCI-H1755; first compound 0.02 µM): 0.973
relative viability (NCI-H1755; first compound 0.06325 µM): 0.971
relative viability (NCI-H1755; first compound 0.2 µM): 0.933
relative viability (NCI-H1793; first compound 0.002 µM): 0.517
relative viability (NCI-H1793; first compound 0.006325 µM): 0.374
relative viability (NCI-H1793; first compound 0.02 µM): 0.293
relative viability (NCI-H1793; first compound 0.06325 µM): 0.137
relative viability (NCI-H1793; first compound 0.2 µM): 0.122
relative viability (ChaGo-K-1; first compound 0.002 µM): 1.1
relative viability (ChaGo-K-1; first compound 0.02 µM): 0.932
relative viability (ChaGo-K-1; first compound 0.06325 µM): 0.41
relative viability (ChaGo-K-1; first compound 0.2 µM): 0.311
relative viability (NCI-H1666; first compound 0.002 µM): 0.807
relative viability (NCI-H1666; first compound 0.006325 µM): 0.97
relative viability (NCI-H1666; first compound 0.02 µM): 1.29
relative viability (NCI-H1666; first compound 0.06325 µM): 0.913
relative viability (NCI-H1666; first compound 0.2 µM): 0.554
relative viability (NCI-H1395; first compound 0.002 µM): 1.42
relative viability (NCI-H1395; first compound 0.006325 µM): 1.16
relative viability (NCI-H1395; first compound 0.02 µM): 0.949
relative viability (NCI-H1395; first compound 0.06325 µM): 0.407
relative viability (NCI-H1395; first compound 0.2 µM): 0.338
relative viability (NCI-H520; first compound 0.002 µM): 1.01
relative viability (NCI-H520; first compound 0.006325 µM): 1
relative viability (NCI-H520; first compound 0.02 µM): 1.1
relative viability (NCI-H520; first compound 0.06325 µM): 0.177
relative viability (NCI-H520; first compound 0.2 µM): 0.167
relative viability (CAL-12T; first compound 0.002 µM): 1.47
relative viability (CAL-12T; first compound 0.006325 µM): 1.23
relative viability (CAL-12T; first compound 0.02 µM): 0.491
relative viability (CAL-12T; first compound 0.06325 µM): 0.106
relative viability (CAL-12T; first compound 0.2 µM): 0.116
relative viability (HCC-827; first compound 0.002 µM): 1.07
relative viability (HCC-827; first compound 0.006325 µM): 1.02
relative viability (HCC-827; first compound 0.02 µM): 1.04
relative viability (HCC-827; first compound 0.06325 µM): 1.01
relative viability (HCC-827; first compound 0.2 µM): 1
relative viability (NCI-H3122; first compound 0.002 µM): 1.03
relative viability (NCI-H3122; first compound 0.006325 µM): 0.956
relative viability (NCI-H3122; first compound 0.02 µM): 1.05
relative viability (NCI-H3122; first compound 0.06325 µM): 0.919
relative viability (NCI-H3122; first compound 0.2 µM): 0.196
relative viability (LU99A; first compound 0.002 µM): 0.878
relative viability (LU99A; first compound 0.006325 µM): 0.815
relative viability (LU99A; first compound 0.02 µM): 0.496
relative viability (LU99A; first compound 0.06325 µM): 0.253
relative viability (LU99A; first compound 0.2 µM): 0.119
relative viability (NCI-H2126; first compound 0.002 µM): 0.852
relative viability (NCI-H2126; first compound 0.006325 µM): 0.777
relative viability (NCI-H2126; first compound 0.02 µM): 0.506
relative viability (NCI-H2126; first compound 0.06325 µM): 0.864
relative viability (NCI-H2126; first compound 0.2 µM): 0.874
relative viability (LXF-289; first compound 0.002 µM): 0.951
relative viability (LXF-289; first compound 0.006325 µM): 0.937
relative viability (LXF-289; first compound 0.02 µM): 1.05
relative viability (LXF-289; first compound 0.06325 µM): 0.851
relative viability (LXF-289; first compound 0.2 µM): 0.302
